Patent US8552057B2, “Phytoestrogenic formulations for alleviation or prevention of neurodegenerative diseases” (priority 2006, dated 2013)
Where two headings read alike, the source gives them in different places.

Legend:
[1] = test system: adult ovariectomized rats; test: Uterine weight in adult ovariectomized rats; conditions: 6 mg/kg BW
[2] = test system: primary hippocampal neurons; test: Glutamate-induced neurotoxicity, LDH release; conditions: for LDH Release (% of Control): 48 h pretreatment, 5-min glutamate, LDH 24 h later; for concentration that elicited the maximal neuroprotective effects: from the dose-response analyses, administered alone
human ERβ = human ERβ (Homo sapiens (Human), UniProt Q92731); test: Fluorescence polarization competitive binding assay, ERβ; conditions: for ERβ RBA (%): percent of the binding affinity of 17β-estradiol (RBA = 100%)
human ERα = human ERα (Homo sapiens (Human), UniProt P03372); test: Fluorescence polarization competitive binding assay, ERα; conditions: for ERα RBA (%): percent of the binding affinity of 17β-estradiol (RBA = 100%)
[3] = test system: adult ovariectomized rats; conditions: rat, in vivo
[4] = 2 subcutaneous injections once daily, 24 h after 2nd injection
[5] = compared with vehicle-treated control (set as 0)

| Structure (SMILES) | LDH Release (% of Control) ([2]; 1 nM) | LDH Release (% of Control) ([2]; 10 nM) | LDH Release (% of Control) ([2]; 100 nM) | LDH Release (% of Control) ([2]; 1 μM) | LDH Release (% of Control) ([2]; 10 μM) | concentration that elicited the maximal neuroprotective effects [2] | further results |
| --- | --- | --- | --- | --- | --- | --- | --- |
| O=c1c(-c2ccc(O)cc2)coc2cc(O)cc(O)c12 [genistein] | 361.03 ± 7.71 % of Control | 350.02 ± 8.21 % of Control | 347.24 ± 16.96 % of Control | 356.79 ± 11.15 % of Control | 377.84 ± 8.45 % of Control | 100 nM | Uterine Dry Weight [1, 4]: 28.14 ± 2.04 mg; Uterine Wet Weight [1, 4]: 144.11 ± 10.18 mg; Uterine Dry Weight Increase (%) [1, 5]: 6.49 ± 7.71%; Uterine Wet Weight Increase (%) [1, 5]: 12.92 ± 7.97% |
| O=c1nc2n(c3cc4ccccc4cc13)Cc1ccccc1-2 [Compd 12] |  |  |  |  |  |  | binding to ERβ (human ERβ): either very weak or no binding |
| Oc1ccc([C@H]2COc3cc(O)ccc3C2)cc1 [Equol, equol] | 453.50 ± 23.37 % of Control | 403.78 ± 17.02 % of Control | 331.59 ± 9.67 % of Control | 381.80 ± 12.01 % of Control | 390.21 ± 9.40 % of Control | 100 nM | IC50 (human ERα): 5880 nM; ERα RBA (%) (human ERα): 0.4306%; Selectivity (β/α) (human ERβ; Table 2): 10.09; IC50 (human ERβ; Table 2, full-length human ERβ, read-out: ERβ IC50): 582 nM; ERβ RBA (%) (human ERβ): 5.571% |
| O=C1Oc2cc(O)cc(Cc3ccccc3)c2CC1c1ccc(Cl)cc1 (stereo not shown) [Compd 3] |  |  |  |  |  |  | IC50 (human ERβ; Table 1, read-out: IC50 ERβ): 250 nM |
| O=c1c(-c2ccc(O)cc2)coc2cc(O)ccc12 [Daidzein, daidzein] | 338.39 ± 16.49 % of Control | 333.98 ± 9.10 % of Control | 301.42 ± 7.70 % of Control | 318.49 ± 15.92 % of Control | 325.41 ± 26.12 % of Control | 100 nM | ERα RBA (%) (human ERα): 0.0949%; ERβ RBA (%) (human ERβ): 1.867% |
| CC(=O)[C@H]1CC[C@H]2[C@@H]3CCC4=CC(=O)CC[C@]4(C)[C@H]3CC[C@]12C [Progesteron, progesterone, reference compound] |  |  |  |  |  |  | binding to ERα (human ERα): does not bind; binding to ERβ (human ERβ): does not bind |
| C[C@]12CC[C@@H]3c4ccc(O)cc4CC[C@H]3[C@@H]1CC[C@@H]2O [17β-Estradiol] |  |  |  |  |  |  | impact on uterine weight [3]: markedly increased |
